Columns and labels:
HeLa cells = assay: luciferase DNP transfection of HeLa cells with drug given before, with or after the DNPs (luciferase activity, light-based assay); type: cell-based; details: drug four hours before, at the same time as, or four hours after luciferase DNPs, versus DNP alone
Description: HeLa cells were transfected with luciferase DNPs either four hours after cells were treated with drug, at the same time as cells were treated with drug, or four hours before cells were treated with drug; DNP alone, RX001 (roscovitine), RX011 (spermine), and RX008 (ruxolitinib).
HeLa cells were transfected with luciferase DNPs either four hours after cells were treated with drug, at the same time as cells were treated with drug, or four hours before cells were treated with drug, DNP alone, RX012 (doxorubicin), RX013 (acetohexamide), and RX014 (sildenafil citrate).
FIG. 12. […] HeLa cell were treated for four hours prior to luciferase DNP administration. Drugs were obtained from a blinded plate. Labels on graphs indicate drugs position on blinded plate. *: p<0.05, **: p<0.01, ***: p<0.001, ***: p<0.0001, compared to DNP Alone group.
(§1) FIG. 17 depicts pharmacological manipulations before, after, and during DNP transfection. Hela cells were given roscovitine (1 μM, CDK1 inhibitor), spermine (1 μM, CKII activator), or ruxolitinib (0.1 μM, JAK inhibitor) at various times during transfection of luciferase DNPs. A. Hela cells were dosed with drugs for 4 hours, washed, and then given luciferase DNPs for 24 hours. B. Hela cells were simultaneously given drug and luciferase DNPs for 24 hr. C. Hela cells were given luciferase DNPs for 4 hours, washed, and then given drug for 24 hr. All cells were then lysed and analyzed for luciferase activity with a light-based assay. (n=8 for each group, signifies p<0.05 and signifies p<0.001).
as §1, with “Hela” for “FIG. 17 depicts pharmacological manipulations before, after, and during DNP transfection. Hela”, “group, mean and SEM shown,” for “group,”, “p<0.001)” for “p<0.001).”

hCFTR gene transfer = assay: in vivo hCFTR gene transfer by DNP with drug (CFTR expression, PCR); design: species or system mice; details: 2, 4 and 7 days post-DNP administration; versus DNP alone
Excerpt: FIG. 16. Gene transfer of hCFTR is enhanced by pharmacologic manipulation of interactome proteins. DMP alone, RX001 (roscovitine), and RX008 (ruxolitinib), 2 days post-DNP administration, 4 days post-DNP administration and 7 days post-DNP administration.
FIG. 22. CFTR Expression comparison between NHBE cells (normal human bronchial/tracheal epithelial cells), Untreated Mice and Day 2 DNP Treated Mice, and CFTR Expression comparison in Day 4 mice treated with a vehicle (DNP Alone) or drug. Day 4 data represents vector subtracted values for the PCR of CFTR.

[1] = test system: luciferase DNP gene transfer; assay: in vivo luciferase DNP gene transfer, drug dosed 2 hours before intratracheal DNP (BLI total photons and lung luciferase activity); details: for enhancement of in vivo DNP transfection over time (BLI): 2, 3, 7 and 14 days after DNP; for enhancement of in vivo DNP transfection over time (BLI) / DNP gene delivery efficacy in vivo (BLI total photons and lung luciferase activity): roscovitine 10 mg/kg, spermine 20 mg/kg, ruxolitinib 1 mg/kg, 2 hours prior to intratracheal 100 μg luciferase DNP; for DNP gene delivery efficacy in vivo (BLI total photons and lung luciferase activity): 14 days post DNP administration; for luciferase gene transfer in vivo, Bioluminescent Image (BLI) analysis: day 2, day 3, day 7 and day 14, compared to DNP Alone group; for total photons over a 10 min BLI exposure from the chest ROI, difference from the DNP alone group: day 14 after DNP, spermine 20 mg/kg (P<0.5), roscovitine 10 mg/kg (p<0.01), dosed 2 hours prior to intratracheal 100 μg luciferase DNP; for luciferase gene transfer in vivo, BLI image analysis and luciferase activity assay: versus DNP alone
Description: Total photon measurements were taken from the chest of each mouse, ROI outlined in red, and background luminescence was subtracted from mice saline control mice (not shown). B. Total photons collected over a 10 min BLI exposure from the ROI at each day.
All data was collected 14 days post DNP administration. […] The ROI, outlined in red, was consistently drawn on each mouse and used to quantify total photons in each mouse. B. Total photons collected over a 10 min BLI exposure from the ROI. Mice that received saline instead of DNPs (not shown) were used to subtract background from the experimental mice. […] Lungs from mice used in B were harvested immediately after BLI imaging and assayed for luciferase activity. (n>10 for each group, p<0.05, p<0.01, p<0.001)
All data was collected 14 days post DNP administration. […] The ROI, outlined in red, was consistently drawn on each mouse and used to quantify total photons in each mouse. B. Total photons collected over a 10 min BLI exposure from the ROI. Mice that received saline instead of DNPs (not shown) were used to subtract background from the experimental mice. […] Lungs from mice used in B were harvested immediately after BLI imaging and assayed for luciferase activity. (n>10 for each group, mean and SEM shown, p<0.05, p<0.01, p<0.001)

Compound: CC[C@H](CO)Nc1nc(NCc2ccccc2)c2ncn(C(C)C)c2n1 [RX001, Roscovitine]
- gene transfer of luciferase in vitro (HeLa cells): enhanced
- gene transfer of hCFTR (hCFTR gene transfer): enhanced
- enhancement of in vivo DNP transfection over time (BLI) [1]: maintained over time
- DNP gene delivery efficacy in vivo (BLI total photons and lung luciferase activity) [1]: enhancement
- luciferase gene transfer in vivo, Bioluminescent Image (BLI) analysis [1]: enhances
- total photons over a 10 min BLI exposure from the chest ROI, difference from the DNP alone group [1]: significantly different
- luciferase gene transfer in vivo, BLI image analysis and luciferase activity assay [1]: enhances

Compound: N#CC[C@H](C1CCCC1)n1cc(-c2ncnc3[nH]ccc23)cn1 [RX008, Ruxolitinib]
- gene transfer of luciferase in vitro (HeLa cells): enhanced
- gene transfer of hCFTR (hCFTR gene transfer): enhanced
- enhancement of in vivo DNP transfection over time (BLI) [1]: maintained over time
- DNP gene delivery efficacy in vivo (BLI total photons and lung luciferase activity) [1]: enhancement
- luciferase gene transfer in vivo, Bioluminescent Image (BLI) analysis [1]: enhances
- luciferase gene transfer in vivo, BLI image analysis and luciferase activity assay [1]: enhances

Compound: NCCCNCCCCNCCCN [RX011, Spermine]
- gene transfer of luciferase in vitro (HeLa cells): enhanced
- enhancement of in vivo DNP transfection over time (BLI) [1]: maintained over time
- DNP gene delivery efficacy in vivo (BLI total photons and lung luciferase activity) [1]: enhancement
- luciferase gene transfer in vivo, Bioluminescent Image (BLI) analysis [1]: enhances
- total photons over a 10 min BLI exposure from the chest ROI, difference from the DNP alone group [1]: significantly different
- luciferase gene transfer in vivo, BLI image analysis and luciferase activity assay [1]: enhances

Compound: COc1cccc2c1C(=O)c1c(O)c3c(c(O)c1C2=O)C[C@@](O)(C(=O)CO)C[C@@H]3O[C@H]1C[C@H](N)[C@H](O)[C@H](C)O1 [RX012, Doxorubicin]
- gene transfer of luciferase in vitro (HeLa cells): enhanced

Compound: CC(=O)c1ccc(S(=O)(=O)NC(=O)NC2CCCCC2)cc1 [RX013, Acetohexamide]
- gene transfer of luciferase in vitro (HeLa cells): enhanced

Compound: CCCc1nn(C)c2c(=O)nc(-c3cc(S(=O)(=O)N4CCN(C)CC4)ccc3OCC)[nH]c12 [RX014, Sildenafil]
- gene transfer of luciferase in vitro (HeLa cells): enhanced

From patent US20230416782A1, “ENHANCED NANOPARTICLE DELIVERY SYSTEMS” (Children's Hospital Medical Center, priority 2020, published 2023)
